Results published in PubChem BioAssay AID256 (DTP/NCI, 2004).
“And” between values parts separate entries of the source, which are not always exact repeats. Identical values can stand only once. Inconclusive results and toxic doses are left out. Rule for the calls: active = survival T/C of 150% or more; inactive = T/C below 125% in these data. Residues, ends and D or L forms follow the SMILES beside them.

Tested on: CD2F1 mice, L1210 leukemia ip, survival T/C
Assay: NCI In Vivo Anticancer Drug Screen. Data for tumor model L1210 Leukemia (intraperitoneal) in CD2F1 (CDF1) mice
Conditions: higher = longer survival
Outline: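 Mice carrying a transplanted tumor received test compound or vehicle alone. The value is the measurement in the treated group divided by that in the vehicle-treated control group.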

[1] = endpoint: mean survival time, dose: 50.0 mg/kg/injection, schedule: Q01DX009 (ip), vehicle: Klucel (hydroxypropylcellulose) (HPC)
[2] = endpoint: mean survival time, dose: 100.0 mg/kg/injection, schedule: Q01DX009 (ip), vehicle: Klucel (hydroxypropylcellulose) (HPC)
[3] = endpoint: mean survival time, dose: 100.0 mg/kg/injection, schedule: Q04DX003 (ip), vehicle: saline with Tween-80
[4] = endpoint: mean survival time, dose: 200.0 mg/kg/injection, schedule: Q04DX003 (ip), vehicle: saline with Tween-80
[5] = endpoint: mean survival time, dose: 400.0 mg/kg/injection, schedule: Q04DX003 (ip), vehicle: saline with Tween-80
[6] = endpoint: mean survival time, dose: 100.0 mg/kg/injection, schedule: Q01DX001 (ip), vehicle: saline with Tween-80
[7] = endpoint: mean survival time, dose: 200.0 mg/kg/injection, schedule: Q01DX001 (ip), vehicle: saline with Tween-80
[8] = endpoint: mean survival time, dose: 400.0 mg/kg/injection, schedule: Q01DX001 (ip), vehicle: saline with Tween-80
[9] = endpoint: mean survival time, dose: 75.0 mg/kg/injection, schedule: Q01DX001 (ip), vehicle: saline
[10] = endpoint: mean survival time, dose: 100.0 mg/kg/injection, schedule: Q01DX009 (ip), vehicle: saline with Tween-80
[11] = endpoint: mean survival time, dose: 200.0 mg/kg/injection, schedule: Q01DX009 (ip), vehicle: Klucel (hydroxypropylcellulose) (HPC)
[12] = endpoint: mean survival time, dose: 200.0 mg/kg/injection, schedule: Q01DX009 (ip), vehicle: saline with Tween-80
[13] = endpoint: mean survival time, dose: 400.0 mg/kg/injection, schedule: Q01DX009 (ip), vehicle: saline with Tween-80

Measured: T/C

CCN1c2ccccc2Sc2cc(C=O)ccc21
inactive: [1] 97 % of control | [2] 108 % of control

CC(=O)OCC1OC(n2ncc3c(Cl)ncnc32)C(OC(C)=O)C1OC(C)=O (stereo not given)
inactive: endpoint: mean survival time, dose: 12.5 mg/kg/injection, schedule: Q01DX005 (ip), vehicle: water 93 % of control | endpoint: mean survival time, dose: 25.0 mg/kg/injection, schedule: Q01DX005 (ip), vehicle: water 93 % of control | endpoint: mean survival time, dose: 50.0 mg/kg/injection, schedule: Q01DX005 (ip), vehicle: water 101 % of control | endpoint: mean survival time, dose: 100.0 mg/kg/injection, schedule: Q01DX005 (ip), vehicle: water 112 % of control | endpoint: mean survival time, dose: 200.0 mg/kg/injection, schedule: Q01DX005 (ip), vehicle: water 103 % of control

CN1C(=O)c2ccccc2C1(c1ccccc1)c1ccccc1
inactive: [3] 92 % of control | [4] 103 % of control | [5] 102 % of control

O=C(O)c1cc(-c2ccccc2)nc2ccccc12
inactive: [6] 103 % of control | [7] 97 % of control | [8] 102 % of control

Cc1cc(=O)[nH]c(-n2nc(N)nc2N)n1
inactive: [9] 107 % of control | endpoint: mean survival time, dose: 150.0 mg/kg/injection, schedule: Q01DX001 (ip), vehicle: saline 101 % of control | endpoint: mean survival time, dose: 300.0 mg/kg/injection, schedule: Q01DX001 (ip), vehicle: saline 101 % of control

CS(=O)(=O)OCC(OS(C)(=O)=O)C(OS(C)(=O)=O)C(OS(C)(=O)=O)C(COS(C)(=O)=O)OS(C)(=O)=O (stereo not given)
inactive: endpoint: mean survival time, dose: 12.5 mg/kg/injection, schedule: Q01DX009 (ip), vehicle: Klucel (hydroxypropylcellulose) (HPC) 101 % of control | endpoint: mean survival time, dose: 25.0 mg/kg/injection, schedule: Q01DX009 (ip), vehicle: Klucel (hydroxypropylcellulose) (HPC) 104 % of control | [1] 101 % of control

O=c1cc(CO)[nH]c(=O)[nH]1
inactive: endpoint: mean survival time, dose: 12.5 mg/kg/injection, schedule: Q01DX009 (ip), vehicle: other 91 % of control | endpoint: mean survival time, dose: 25.0 mg/kg/injection, schedule: Q01DX009 (ip), vehicle: other 94 % of control | endpoint: mean survival time, dose: 50.0 mg/kg/injection, schedule: Q01DX009 (ip), vehicle: other 91 % of control | endpoint: mean survival time, dose: 100.0 mg/kg/injection, schedule: Q01DX009 (ip), vehicle: other 92 % of control | endpoint: mean survival time, dose: 200.0 mg/kg/injection, schedule: Q01DX009 (ip), vehicle: other 97 % of control

O=C(NCCCl)Nc1cc(Cl)cc(Cl)c1
inactive: endpoint: mean survival time, dose: 25.0 mg/kg/injection, schedule: Q01DX009 (ip), vehicle: saline with Tween-80 97 % of control | endpoint: mean survival time, dose: 50.0 mg/kg/injection, schedule: Q01DX009 (ip), vehicle: saline with Tween-80 100 % of control | [10] 88 % of control and 96 % of control

O=C(/C=C/c1ccccc1)NC1CC1
inactive: [6] 94 % of control | [7] 89 % of control | [8] 93 % of control

COC(=O)c1cccc2c(Br)cc3ccccc3c12
inactive: [2] 98 % of control | endpoint: mean survival time, dose: 100.0 mg/kg/injection, schedule: Q04DX003 (ip), vehicle: Klucel (hydroxypropylcellulose) (HPC) 102 % of control | [11] 103 % of control | endpoint: mean survival time, dose: 200.0 mg/kg/injection, schedule: Q04DX003 (ip), vehicle: Klucel (hydroxypropylcellulose) (HPC) 98 % of control | endpoint: mean survival time, dose: 400.0 mg/kg/injection, schedule: Q01DX009 (ip), vehicle: Klucel (hydroxypropylcellulose) (HPC) 110 % of control | endpoint: mean survival time, dose: 400.0 mg/kg/injection, schedule: Q04DX003 (ip), vehicle: Klucel (hydroxypropylcellulose) (HPC) 108 % of control

COC(=O)C1=C(N)CCc2ccccc21
inactive: [10] 91 % of control | [12] 96 % of control | [13] 96 % of control

CCN(CC)Cc1cc2[nH]c3c4ccc(Cl)cc4ncc3c2cc1OC
inactive: endpoint: median survival time, dose: 6.25 mg/kg/injection, schedule: Q01DX009 (ip), vehicle: saline with Tween-80 102 % of control | endpoint: median survival time, dose: 12.5 mg/kg/injection, schedule: Q01DX009 (ip), vehicle: saline with Tween-80 102 % of control | endpoint: median survival time, dose: 25.0 mg/kg/injection, schedule: Q01DX009 (ip), vehicle: saline with Tween-80 103 % of control | endpoint: median survival time, dose: 50.0 mg/kg/injection, schedule: Q01DX009 (ip), vehicle: saline with Tween-80 111 % of control

O=[N+]([O-])c1ccc(/C(CBr)=N/N2CCCCC2)cc1
inactive: endpoint: mean survival time, dose: 100.0 mg/kg/injection, schedule: Q01DX001 (ip), vehicle: saline 94 % of control | endpoint: mean survival time, dose: 200.0 mg/kg/injection, schedule: Q01DX001 (ip), vehicle: saline 93 % of control | endpoint: mean survival time, dose: 400.0 mg/kg/injection, schedule: Q01DX001 (ip), vehicle: saline 92 % of control

COC(=O)C1CCC2C3CC=C4CC(O)CCC4(C)C3CCC12C (stereo not given)
inactive: [6] 98 % of control | [7] 93 % of control | [8] 93 % of control

C[CH2][Sn]1([CH2]C)[O]CC2OC(n3cc(C)c(=O)[nH]c3=O)CC2[O]1 (stereo not given)
inactive: endpoint: mean survival time, dose: 0.78 mg/kg/injection, schedule: Q01DX005 (ip), vehicle: other 94 % of control | endpoint: mean survival time, dose: 1.56 mg/kg/injection, schedule: Q01DX005 (ip), vehicle: other 104 % of control | endpoint: mean survival time, dose: 3.13 mg/kg/injection, schedule: Q01DX005 (ip), vehicle: other 110 % of control | endpoint: mean survival time, dose: 6.25 mg/kg/injection, schedule: Q01DX005 (ip), vehicle: other 107 % of control

COc1cc2c(cc1OC)C(CCN1C(=O)CCC1=O)=NCC2
inactive: endpoint: mean survival time, dose: 50.0 mg/kg/injection, schedule: Q01DX009 (ip), vehicle: saline sonified 96 % of control | endpoint: mean survival time, dose: 100.0 mg/kg/injection, schedule: Q01DX009 (ip), vehicle: saline sonified 102 % of control | endpoint: mean survival time, dose: 100.0 mg/kg/injection, schedule: Q04DX003 (ip), vehicle: saline sonified 98 % of control | endpoint: mean survival time, dose: 200.0 mg/kg/injection, schedule: Q01DX009 (ip), vehicle: saline sonified 100 % of control | endpoint: mean survival time, dose: 200.0 mg/kg/injection, schedule: Q04DX003 (ip), vehicle: saline sonified 103 % of control

CCN(CC)S(=O)(=O)c1ccccc1
inactive: [1] 93 % of control | [2] 104 % of control | [11] 96 % of control

COc1c(Cl)c(=O)oc2ccc(Cl)cc12
inactive: [6] 93 % of control | [7] 90 % of control | [8] 88 % of control

CCOC(=O)NC1CC(OC(=O)c2ccc(C)cc2)C(COC(=O)c2ccc(C)cc2)O1 (stereo not given)
inactive: [10] 95 % of control | [12] 92 % of control | [13] 100 % of control

COc1ccc(NC(=O)C(c2ccccc2)c2ccccc2)cc1
inactive: [10] 105 % of control | [12] 102 % of control | [13] 92 % of control

CSc1nnc(SC)c(SC)n1
inactive: [9] 96 % of control

NC(N)=NCCCC(N)C(=O)NC(CCC(=O)O)C(=O)O (stereo not drawn) (H-Arg-Glu-OH; configuration not given here)
inactive: endpoint: mean survival time, dose: 25.0 mg/kg/injection, schedule: Q01DX009 (ip), vehicle: saline 91 % of control | endpoint: mean survival time, dose: 50.0 mg/kg/injection, schedule: Q01DX009 (ip), vehicle: saline 94 % of control | endpoint: mean survival time, dose: 100.0 mg/kg/injection, schedule: Q01DX009 (ip), vehicle: saline 89 % of control | endpoint: mean survival time, dose: 200.0 mg/kg/injection, schedule: Q01DX009 (ip), vehicle: saline 89 % of control | endpoint: mean survival time, dose: 400.0 mg/kg/injection, schedule: Q01DX009 (ip), vehicle: saline 93 % of control

O=C(CC(=O)c1ccccc1O)c1ccccc1
inactive: [10] 91 % of control | [12] 88 % of control | [13] 94 % of control

C=CCC1(C(=O)OCC)CCCCC1=O (stereo not given)
inactive: [3] 103 % of control | [4] 106 % of control | [5] 110 % of control

COc1cc2c(C)nc3c4cc5c(cc4ccc3c2cc1OC)OCO5
inactive: endpoint: mean survival time, dose: 3.13 mg/kg/injection, schedule: Q01DX009 (ip), vehicle: water 97 % of control | endpoint: mean survival time, dose: 6.25 mg/kg/injection, schedule: Q01DX009 (ip), vehicle: water 92 % of control | endpoint: mean survival time, dose: 12.5 mg/kg/injection, schedule: Q01DX009 (ip), vehicle: water 90 % of control | endpoint: mean survival time, dose: 25.0 mg/kg/injection, schedule: Q01DX009 (ip), vehicle: water 95 % of control | endpoint: mean survival time, dose: 50.0 mg/kg/injection, schedule: Q01DX009 (ip), vehicle: water 93 % of control

O=C1Nc2ccccc2C1=O
inactive: endpoint: mean survival time, dose: 100.0 mg/kg/injection, schedule: Q01DX001 (ip), vehicle: Klucel (hydroxypropylcellulose) (HPC) 96 % of control | endpoint: mean survival time, dose: 200.0 mg/kg/injection, schedule: Q01DX001 (ip), vehicle: Klucel (hydroxypropylcellulose) (HPC) 102 % of control | endpoint: mean survival time, dose: 400.0 mg/kg/injection, schedule: Q01DX001 (ip), vehicle: Klucel (hydroxypropylcellulose) (HPC) 101 % of control

CN(c1ccccc1)c1ccccc1
inactive: [6] 94 % of control | [7] 89 % of control

COc1ccc(C)c2nc3ccccc3nc12
inactive: [6] 98 % of control | [7] 97 % of control | [8] 98 % of control
